“Also recorded” adds a separate entry of the source. Like-named read-outs stand apart in the source and are kept apart here.
Tests used:
iPSC-hBBB monolayer = assay: Apparent permeability (Papp A to B) across the in vitro iPSC-hBBB model; settings: iPSC-hBBB model, PappAB
Procedure: (§1) On day before the co-culture establishment, rat glial cells (2 × 10^4 cells) isolated as described previously[6] were plated on 12 wells plate (Costar) in glial specific medium. After 24 hours, hiPSC-BECs (6 × 10^4cells) were plated on the upper side of a collagen-coated polyester Transwell membrane (Costar, pore size 0.4 µm; diameter 12 mm; insert growth area 1 cm^2) in 0.5 mL of endothelial medium.
(§2) Experiments were performed in triplicate for each compound.
(§3) For LC-MS/MS a sample aliquot (transfer buffer) was diluted by half with acetonitrile and then, 10 μL of this solution was injected into the analytical equipment made up a Liquid Chromatography system coupled to a triple quadrupole mass spectrometer Thermofisher TS Quantum Discovery or Waters Quattro Premier XE equipped with a electrospray ionization source. System control and data processing were carried out using Xcalibur or Masslynx software. The chromatographic separation was performed on a Waters ACQUITY UPLC BEH C18 column (2.1 mm × 50 mm, 1.7 μm) at 60 °C. A gradient of two solvent mixtures was delivered at 0.3 mL/min or 0.5 mL/min according to the analytical system. Solvent A comprised 0.1% formic acid in ammonium acetate (5 mM) and solvent B, 0.1% formic acid in acetonitrile. Molecules were ionized in positive mode. Multiple reaction monitoring mode was used for compounds quantification. For all tested compounds, a linear gradient of mobile phase A and B was optimized. Linearity of the response was verified in the range 0.05 to 5 µM through 3 experiments to be able to measure low passage. Quantification was carried out using standard calibration curve and quality control samples prepared with blank matrix (transfer buffer/acetonitrile; 1/1; v/v) spiked with compounds.

human brain (BBB) = settings: PET, cited from earlier work; for K1, rate constant for transfer from arterial plasma into brain: human brain; for cerebral uptake / brain distribution in human brain (in words): in vivo, ref S1 Table 1
[1] = tested on: in vitro primary cell-based rat BBB model; assay: Apparent permeability in the in vitro primary cell-based rat BBB model; settings: in vitro cell based rat BBB model vs iPSC-hBBB model
Excerpt: We previously described an in vitro primary cell-based rat BBB model with relevant features of the in vivo rat BBB[6]. We therefore analyzed correlatively the permeability of a set of compounds obtained using the in vitro iPSC-hBBB model and the in vitro cell based rat BBB model.

[2] = tested on: ABC transporters (P-gp) in the iPSC-hBBB model
Procedure: (§4) A known P-gp substrate was used to assess the asymmetry index of the iPSC- hBBB model.
(§5) The integrity of iPSC-derived human BBB model was determined by assessment of radiolabelled sucrose permeability as a paracellular marker. The transwells with hiPSC-BECs monolayers were transferred to new 12 well plates. […] After 1 hour of incubation at 37 °C with gentle rotation, 100 µL of transfer buffer from both A and B compartments were collected and counted by scintillation. The Papp value was calculated as followed: Papp=dQ/dTXAXC0 where dQ/dT is the amount of compound transported per time point; A is the membrane surface area of the insert; and Co is the donor concentration at the time point. Data were presented as the average ± SD from three monolayers. […] The propranolol permeability was also tested using the same protocol with an apical tested dose about 1 µCi/mL (48 nM) of [^3H]propranolol in transfer buffer. […] After checking the cell monolayer integrity, the monolayers were transferred to new plates. The buffer (150 mM NaCl, 5.2 mM KCl, 2.2 mM CaCl2, 0.2 mM MgCl2, 6 mM NaHCO3, 2.8 mM glucose and 5 mM Hepes) was added: 1.5 mL to the basal chamber (B) and 0.5 mL to the apical chamber (A). Experiments were performed in triplicate for each compound. […] After 60 min, aliquots were removed from the acceptor and basal chambers for drug-concentration determination by LC-MS/MS.

[3] = tested on: ABC transporters in the in vitro primary rat cell based BBB model
[4] = Apparent permeability (Papp A to B) across the in vitro iPSC-hBBB model; settings: human
Procedure: as §1, §2, §3

ABC transporters (P-gp) = assay: in vitro; settings: human, PappBA/PappAB efflux ratio (ER)
Procedure: as §4, §5

ABC transporters = assay: in vitro; settings: rat

## COC[C@H]1CN(c2ccc(OCC[C@@H](O)C(F)(F)F)cc2)C(=O)O1 [befloxatone]
iPSC-hBBB monolayer
  in vitro permeability across the iPSC-hBBB model (in words): high permeability
Human brain (BBB); ref unpublished data
  K1, rate constant for transfer from arterial plasma into brain: 0.20 mL.cm-3.min-1
Human brain (BBB)
  cerebral uptake / brain distribution in human brain (in words): high cerebral uptake

## Cn1c(=O)c2c(ncn2C)n(C)c1=O [caffeine]
[1]
  permeability in the rat BBB model compared with the iPSC-hBBB model (in words): higher

## COc1ccc2c(c1)[C@]13CCCC[C@@H]1[C@H](C2)N(C)CC3 [dextromethorphan]
[1]
  permeability in the rat BBB model compared with the iPSC-hBBB model (in words): higher

## C#Cc1cccc(Nc2ncnc3cc(OCCOC)c(OCCOC)cc23)c1 [erlotinib]
iPSC-hBBB monolayer
  in vitro permeability across the iPSC-hBBB model (in words): high permeability
[2]
  ABC transporter substrate / interaction (in words): not in the in vitro iPSC-hBBB model
[3]
  ABC transporter substrate / interaction (in words): apparently an ABC transporter substrate
Human brain (BBB)
  K1, rate constant for transfer from arterial plasma into brain: 0.02 mL.cm-3.min-1
  cerebral uptake / brain distribution in human brain (in words): low cerebral uptake

## CN(C)C(=O)C(CCN1CCC(O)(c2ccc(Cl)cc2)CC1)(c1ccccc1)c1ccccc1 [loperamide]
iPSC-hBBB monolayer
  in vitro permeability across the iPSC-hBBB model (in words): low apparent permeability
[1]
  permeability in the rat BBB model compared with the iPSC-hBBB model (in words): higher
[2]
  ABC transporter substrate / interaction (in words): likely to be also ABC transporter substrates; also recorded: apparently interacted with ABC transporters
Human brain (BBB)
  K1, rate constant for transfer from arterial plasma into brain: 0.002 mL.cm-3.min-1

## CC(C)NCC(O)COc1cccc2ccccc12 (stereo not shown) [propranolol]
[4]
  Papp A→B at 1 h: 21.7 ± 3.1 ×10⁻⁶ cm/s

## CCN1CCC[C@H]1CNC(=O)c1c(O)c(Cl)cc(Cl)c1OC [raclopride]
Human brain (BBB)
  K1, rate constant for transfer from arterial plasma into brain: 0.09 mL.cm-3.min-1

## CC[C@]1(O)C[C@@H]2CN(CCc3c([nH]c4ccccc34)[C@@](C(=O)OC)(c3cc4c(cc3OC)N(C)[C@H]3[C@@](O)(C(=O)OC)[C@H](OC(C)=O)[C@]5(CC)C=CCN6CC[C@]43[C@@H]65)C2)C1 [vinblastine]
[2]
  ABC transporter substrate / interaction (in words): likely to be also ABC transporter substrates
ABC transporters (P-gp)
  efflux ratio at 60 min: 1.55 ± 0.4
ABC transporters
  efflux ratio: ≥ 1.25
